Consider 15 compounds from article PMC11328599, “Crystal structure of dihydroneopterin aldolase from Mycobacterium tuberculosis associated with 8-mercaptoguanine, and development of novel S8-functionalized analogues as inhibitors: Synthesis, enzyme inhibition, in vitro toxicity and antitubercular activity” (Journal of Enzyme Inhibition and Medicinal Chemistry, 2024).

One series deals with T1, MtFolB (Mycobacterium tuberculosis, UniProt P9WNC5).
T1 construct: made in house
The experiment in a line: Mode of inhibition and inhibition constants on MtFolB aldolase activity (Lineweaver-Burk). It counts as biochemical. The conditions noted are these: towards substrate DHNP; for Ki: read-out: Kis DHNP. The method, then:
The mode of inhibition and the inhibition constants (Ki and/or Kis) were defined for the compounds 3a-e. There are three categories for the inhibition mode: competitive, where inhibitor and substrate binding are mutually exclusive; non-competitive, if the inhibitor can bind to both the free enzyme and the enzyme-substrate complex; or uncompetitive, when the inhibitor binds only to the enzyme-substrate complex. For each compound, 3 curves were performed with fixed-varied inhibitor concentration and varying the DHNP concentration until saturation of enzyme activity. For the compound 3a the fixed-varied concentrations were 0.2 μM, 0.5 μM and 0.8 μM (varying DHNP 0.5 – 10 μM). For the compound 3b the fixed-varied concentrations were 0.1 µM (varying DHNP 0.2 – 10 µM); 0.3 μM (varying DHNP 0.5 – 10 μM) and 0.6 μM (varying DHNP 0.5 – 15 μM). For the compound 3c the fixed-varied concentrations were 0.3 μM, 0.6 μM and 0.9 μM (varying DHNP 0.5 – 10 μM). For the compound 3d the fixed-varied concentrations were 0.5 μM, 1 μM (varying DHNP 0.5 – 10 μM) and 2.5 μM (varying DHNP 1 – 10 μM). For the compound 3e the fixed-varied concentrations were 1.4 µM, 3.5 µM (varying DHNP 0.5 – 10 µM) and 7 µM (varying DHNP 1 – 10 µM). Furthermore, we performed a control experiment with 10% DMSO in the absence of inhibitors varying the DHNP concentration until saturation (0.2 – 10 µM). The straight-line patterns obtained were used to define the mode of inhibition. The diagnostic signature of a competitive inhibitor is a set of lines that intersect on the y-axis, for non-competitive inhibitors the pattern of intersection is to the left of the y-axis and for uncompetitive inhibitors the lines are parallel to each other. The inhibition constants were calculated using Equation (2) for competitive inhibitors or Equation (3) for non-competitive inhibitors, where [I] is the inhibitor concentration, [S] is the substrate concentration, KM is the Michaelis-Menten constant, Vmax is the maximum velocity, Kis is the inhibition constant for the enzyme-substrate complex, and Kii is the inhibition constant for the enzyme-substrate-inhibitor complex. (2) 1/v0=KM/Vmax(1+[I]/Kis)1/[S]+1/Vmax (3) 1/v0=KM/Vmax(1+[I]/Kis)1/[S]+1/Vmax(1+[I]/Kii)

A short description of a further series: physchem. The conditions noted are these: 25 °C, thermodynamic from solid. It counts as physicochemical. Here is the method:
The solubility of the compound 3e was evaluated under three pH conditions: pH 1.2 (HCl 0.1 M); pH 7.4 (PBS 1X); and pH 9.1 (NH4HCO3 0.1 M). For this assay, we prepared a suspension of compound 3e at 1 mg/mL in each buffer solution by vortexing it for 1 min. Then, the suspension was kept under constant shaking for 4 h at 25 °C. Subsequently, the suspension was centrifuged at 13,000 rpm for 15 min at 25 °C. The supernatant was quantified by ultra-high-performance liquid chromatography (UHPLC) using single-point calibration of a known concentration of the compound in DMSO. The experiment was performed in triplicate.

Series [1] has as its system M. tuberculosis H37Rv strain. The experiment in a line: Minimum inhibitory concentration, resazurin reduction microplate assay (REMA). Format: cell-based. The conditions noted are these: Mycobacterium tuberculosis. Background: The colour change of resazurin is a common sign of viable cells or microbes.
The nature of a further series: in vitro. It counts as cell-based. The conditions noted are these: % of cell viability ± SEM. Here is the method: (§1) Cell viability assays in the presence of compound 3e were performed in both Vero (BCRJ code 0245) and HepG2 (BCRJ code 0291) cells using MTT (3-[4,5-dimethylthiazol-2-yl]-2,5 diphenyl tetrazolium bromide)[21] and neutral red uptake (NRU)[22] methods. Both cell lines were grown in Dulbecco’s Modified Eagle Medium (DMEM-Gibco, Grand Island, NY, USA) supplemented with 10% or 20% inactivated foetal bovine serum (FBS- Invitrogen) for Vero and HepG2, respectively, 1% penicillin (Gibco) and streptomycin (Gibco), and 0.1% fungizone (Gibco). The experiments were performed in 96-well plates. First, cells were seeded at 6 x 10^3 (Vero) or 7 x 10^3/well (HepG2) and incubated overnight at 37 °C under a 5% CO2 atmosphere. Then, the medium was removed and replaced with fresh medium containing the compound at a final concentration of 75 µM, 87.5 µM, or 100 µM with DMSO at a final concentration of 0.8%. Cells were incubated during 72 h at 37 °C under a 5% CO2 atmosphere. For the MTT assay, the medium was removed after the incubation and replaced with MTT reagent (Sigma-Aldrich) at 5 mg/mL, and then the cells were incubated for 4 h. DMSO was used to solubilise formazan crystals. The absorbance was measured at 570 nm using microplate reader (EZ Read 400 microplate reader, Biochrom, Cambridge, UK). Precipitated purple formazan crystals were directly proportional to the number of live cells with mitochondrial metabolism. For the NRU assay, after the incubation with the compound, the media was removed and 200 µL of neutral red dye solution (Sigma-Aldrich) at 25 µg/mL prepared in serum-free medium was added to each well. The plate was then incubated for 3 h at 37 °C under 5% CO2. After this time, cells were washed twice with PBS, followed by incubation with 100 μL of a desorb solution (ethanol/acetic acid/water, […]) for 30 min, with gentle shaking to extract neutral red dye from the viable cells. The absorbance was measured at 562 nm using microplate reader (EZ Read 400 microplate reader, Biochrom, Cambridge, UK). Treated control wells (0.8% DMSO) were used as references for maximum cell viability (100%). Three independent experiments were performed, and the data were expressed as the means of cell viability ± the standard error of the means. Statistical analysis was performed using one-way ANOVA analysis of variance followed by Dunett’s Multiple Comparison Test post-test using GraphPad Prism 9.0.0 (San Diego, CA, USA).

For another series, the system named is HepG2 cells. The experiment in a line: in vitro. It counts as cell-based. The conditions noted are these: for % of cell viability ± SEM: human, 72 h. The method, then: as §1
The test system of the next series is Vero cells. The experiment in a line: in vitro. Format: cell-based. The conditions noted are these: for % of cell viability ± SEM: African green monkey, 72 h. The method, then:
as §1

The mark [2] stands for this setting: REMA, 7 days + 48 h resazurin, read-out: MIC.
Setting [3] is: converted from µg/mL, read-out: MIC (equivalent).

Converted amounts (≈) assume the structure as drawn. “And” between values parts separate entries of the source, which are not always exact repeats. Equal entries are not always repeated. Where two headings read alike, the source gives them in different places.

What is called melting point is the temperature of the solid-liquid transition. Usually solubility stands for the concentration that dissolves in the medium under given conditions. Usually MIC stands for the smallest concentration in the dilution series that meets the test's criterion for growth inhibition. What is called viability is a read-out of living cells in per cent, often relative to untreated cells.

T1 sequence (P9WNC5 whole entry): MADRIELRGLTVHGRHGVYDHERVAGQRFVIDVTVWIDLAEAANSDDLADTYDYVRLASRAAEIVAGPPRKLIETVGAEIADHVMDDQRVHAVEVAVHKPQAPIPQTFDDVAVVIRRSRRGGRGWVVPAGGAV

For the compound `Nc1nc2[nH]c(SCC(=O)Nc3ccc(N4CCCCC4)cc3)nc2c(=O)[nH]1` [Compound 3a, 2-((2-amino-6-oxo-6,9-dihydro-1H-purin-8-yl)thio)-N-(4-(piperidin-1-yl)phenyl)acetamide], the melting point is 258 to 260 °C (dec.). Further, at MtFolB, the Inhibition mode entry is recorded as “Competitive” and the Ki came out at 400 ± 100 nM.
In the case of `Nc1nc2[nH]c(SCC(=O)Nc3ccc(N4CCOCC4)cc3)nc2c(=O)[nH]1` [Compound 3b, 2-((2-amino-6-oxo-6,9-dihydro-1H-purin-8-yl)thio)-N-(4-morpholinophenyl)acetamide], the melting point was 326 to 328 °C (dec.). Also, on MtFolB, the Inhibition mode entry is “Competitive” and the Ki was determined as 300 ± 80 nM.
For the compound `Nc1nc2[nH]c(SCC(=O)Nc3ccc(C(=O)N4CCCC4)cc3)nc2c(=O)[nH]1` [Compound 3c, 2-((2-amino-6-oxo-6,9-dihydro-1H-purin-8-yl)thio)-N-(4-(pyrrolidine-1-carbonyl)phenyl)acetamide], the melting point is 237 to 239 °C (dec.). Further, on MtFolB, the Inhibition mode entry was “Non-competitive”; the “Kii DHNP” value was 1.5 µM and 1.5 ± 0.9 µM; the Ki amounted to 300 ± 200 nM.
On to `Nc1nc2[nH]c(SCC(=O)Nc3ccc4c(c3)CCCC4)nc2c(=O)[nH]1` [Compound 3d, 2-((2-amino-6-oxo-6,9-dihydro-1H-purin-8-yl)thio)-N-(5,6,7,8-tetrahydronaphthalen-2-yl)acetamide], for which the melting point is 294 to 295 °C (dec.). Further, on MtFolB, the Inhibition mode entry is listed as “Competitive” and the Ki came to 200 ± 50 nM.
With `Nc1nc2[nH]c(SCC(=O)Nc3cccc4c3CCCC4)nc2c(=O)[nH]1` [Compound 3e, 2-((2-amino-6-oxo-6,9-dihydro-1H-purin-8-yl)thio)-N-(5,6,7,8-tetrahydronaphthalen-1-yl)acetamide], the melting point was 260 to 261 °C (dec.). Also, in “physchem” (pH 1.2, simulated gastric fluid), the concentration in solution (solubility at 4 h) came to 612 µM (≈ 227 µg/mL). Also, in “physchem” (pH 7.4, aqueous buffer), the concentration in solution (solubility at 4 h) came to 1.1 µM (≈ 0.407 µg/mL). For the same compound, the solubility at 4 h in “physchem” (pH 9.1, aqueous buffer) stood at 37.6 µM (≈ 13.9 µg/mL). At MtFolB, the Inhibition mode result is given as “Non-competitive”; the “Kii DHNP” value was 6.3 µM and 6.3 ± 1.2 µM; the Ki is 1400 ± 300 nM. The MIC in series [1] (setting [2]) was determined as 40 µg/mL. The MIC in series [1] (setting [3]) came out at 108 µM. In addition, in “in vitro” (African green monkey), the viability at 72 h, 75 µM is 115 ± 2%; the viability at 72 h, 87.5 µM worked out at 94 ± 10%; the viability at 72 h, 100 µM turned out to be 94 ± 3%. In addition, in “in vitro” (human), the viability at 72 h, 75 µM was found to be 108 ± 3%; the viability at 72 h, 87.5 µM stood at 97 ± 2%; the viability at 72 h, 100 µM is 96 ± 2%. Moreover, in the series on HepG2 cells, the toxicity result was “no apparent toxicity”. Besides, the “% of cell viability ± SEM” value in the series on HepG2 cells (75 µM) was 100 ± 6%. In addition, the “% of cell viability ± SEM” value in the series on HepG2 cells (87.5 µM) stood at 111 ± 3%. Besides, the “% of cell viability ± SEM” value in the series with HepG2 cells (100 µM) is 104 ± 2%. The toxicity entry in the series on Vero cells is “no apparent toxicity”. In addition, the “% of cell viability ± SEM” value with Vero cells (75 µM) turned out to be 96 ± 1%. Also, in the series with Vero cells (87.5 µM), the “% of cell viability ± SEM” value is reported as 102 ± 3%. Also, the “% of cell viability ± SEM” value with Vero cells (100 µM) is 96 ± 2%.
Take `Nc1nc2[nH]c(SCC(=O)NC3CCCCCC3)nc2c(=O)[nH]1` [Compound 3f, 2-((2-amino-6-oxo-6,9-dihydro-1H-purin-8-yl)thio)-N-cycloheptylacetamide]: the melting point is 292 to 294 °C (dec.).
Still for that read-out and setting: the same measure for `CC1CCC(NC(=O)CSc2nc3c(=O)[nH]c(N)nc3[nH]2)CC1` (centres unmarked) [Compound 3g, 2-((2-amino-6-oxo-6,9-dihydro-1H-purin-8-yl)thio)-N-(4-methylcyclohexyl)acetamide]: 282 to 284 °C (dec.); for `Nc1nc2[nH]c(SCC(=O)NC3CCCC3)nc2c(=O)[nH]1` [Compound 3h, 2-((2-amino-6-oxo-6,9-dihydro-1H-purin-8-yl)thio)-N-cyclopentylacetamide]: 280 to 282 °C (dec.).
On the same count and under the same terms, the same measure for `Nc1nc2[nH]c(SCC(=O)NC3CCC3)nc2c(=O)[nH]1` [Compound 3i, 2-((2-amino-6-oxo-6,9-dihydro-1H-purin-8-yl)thio)-N-cyclobutylacetamide]: 285 to 287 °C (dec.).
On the same count and under the same terms, the same measure for `CN(C(=O)CSc1nc2c(=O)[nH]c(N)nc2[nH]1)C1CCCCC1` [Compound 3j, 2-((2-amino-6-oxo-6,9-dihydro-1H-purin-8-yl)thio)-N-cyclohexyl-N-methylacetamide]: 272 to 274 °C (dec.); for `C[C@@H]1[C@H](NC(=O)CSc2nc3c(=O)[nH]c(N)nc3[nH]2)C[C@H]2C[C@@H]1C2(C)C` [Compound 3k, 2-((2-amino-6-oxo-6,9-dihydro-1H-purin-8-yl)thio)-N-((1S,2S,3R,5R)-2,6,6-trimethylbicyclo [3.1.1]heptan-3-yl)acetamide]: 289 to 291 °C (dec.).
As to `Nc1nc2[nH]c(SCC(=O)NCC3CCCCC3)nc2c(=O)[nH]1` [Compound 3l, 2-((2-amino-6-oxo-6,9-dihydro-1H-purin-8-yl)thio)-N-(cyclohexylmethyl)acetamide], the melting point is 262 to 263 °C (dec.).
On the same count and under the same terms, the same measure for `C[C@H](NC(=O)CSc1nc2c(=O)[nH]c(N)nc2[nH]1)C1CCCCC1` [Compound 3m, (S)-2-((2-amino-6-oxo-6,9-dihydro-1H-purin-8-yl)thio)-N-(1-cyclohexylethyl)acetamide]: 294 to 296 °C (dec.); for `C[C@@H](NC(=O)CSc1nc2c(=O)[nH]c(N)nc2[nH]1)C1CCCCC1` [Compound 3n, (R)-2-((2-amino-6-oxo-6,9-dihydro-1H-purin-8-yl)thio)-N-(1-cyclohexylethyl)acetamide]: 289 to 291 °C (dec.).
Consider `NNC(=O)c1ccncc1` [INH, Isoniazid], for which the MIC in series [1] (setting [2]) worked out at 0.31 µg/mL; in series [1] (setting [3]), 2.3 µM.
